Experimental data taken from ChEMBL document CHEMBL3046127, “Homo- and hetero-dimers of inactive organophosphorous group binding at dual sites of AChE” (Bioorg Med Chem Lett, 2011).

Key:
Tetranychus cinnabarinus = experiment: Insecticidal activity against Tetranychus cinnabarinus (carmine spider mite) assessed as insect mortality at 300 mg/mL; assay type: functional; parameters: dose or concentration left out as unconfirmed
Acetylcholinesterase [1] = molecular target: Acetylcholinesterase (Drosophila melanogaster, UniProt P07140); experiment: Inhibition of acetylcholinesterase in Drosophila melanogaster brain by Ellman's method
Chain of Acetylcholinesterase (Drosophila melanogaster, UniProt P07140) (P07140 whole entry): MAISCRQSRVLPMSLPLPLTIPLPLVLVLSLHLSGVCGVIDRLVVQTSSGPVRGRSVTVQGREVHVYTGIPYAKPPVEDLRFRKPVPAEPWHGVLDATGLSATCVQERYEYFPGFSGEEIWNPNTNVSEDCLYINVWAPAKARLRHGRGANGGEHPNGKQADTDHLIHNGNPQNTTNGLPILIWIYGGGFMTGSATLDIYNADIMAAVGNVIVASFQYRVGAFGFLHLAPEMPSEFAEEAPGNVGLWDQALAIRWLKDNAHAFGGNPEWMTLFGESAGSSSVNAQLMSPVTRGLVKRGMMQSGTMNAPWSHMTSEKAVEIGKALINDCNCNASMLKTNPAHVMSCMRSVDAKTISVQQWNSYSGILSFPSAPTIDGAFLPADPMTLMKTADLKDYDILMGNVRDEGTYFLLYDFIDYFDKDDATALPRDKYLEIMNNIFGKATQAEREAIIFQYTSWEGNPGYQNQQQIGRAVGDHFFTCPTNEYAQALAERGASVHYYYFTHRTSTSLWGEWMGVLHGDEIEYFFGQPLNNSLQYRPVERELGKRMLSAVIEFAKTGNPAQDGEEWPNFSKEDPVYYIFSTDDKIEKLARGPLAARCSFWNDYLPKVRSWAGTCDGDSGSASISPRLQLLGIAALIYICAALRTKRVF

Acetylcholinesterase [2] = molecular target: Acetylcholinesterase (Musca domestica, UniProt Q7YWJ9); experiment: Inhibition of acetylcholinesterase in Musca domestica (house fly) brain by Ellman's method
Chain of Acetylcholinesterase (Musca domestica, UniProt Q7YWJ9) (Q7YWJ9 whole entry): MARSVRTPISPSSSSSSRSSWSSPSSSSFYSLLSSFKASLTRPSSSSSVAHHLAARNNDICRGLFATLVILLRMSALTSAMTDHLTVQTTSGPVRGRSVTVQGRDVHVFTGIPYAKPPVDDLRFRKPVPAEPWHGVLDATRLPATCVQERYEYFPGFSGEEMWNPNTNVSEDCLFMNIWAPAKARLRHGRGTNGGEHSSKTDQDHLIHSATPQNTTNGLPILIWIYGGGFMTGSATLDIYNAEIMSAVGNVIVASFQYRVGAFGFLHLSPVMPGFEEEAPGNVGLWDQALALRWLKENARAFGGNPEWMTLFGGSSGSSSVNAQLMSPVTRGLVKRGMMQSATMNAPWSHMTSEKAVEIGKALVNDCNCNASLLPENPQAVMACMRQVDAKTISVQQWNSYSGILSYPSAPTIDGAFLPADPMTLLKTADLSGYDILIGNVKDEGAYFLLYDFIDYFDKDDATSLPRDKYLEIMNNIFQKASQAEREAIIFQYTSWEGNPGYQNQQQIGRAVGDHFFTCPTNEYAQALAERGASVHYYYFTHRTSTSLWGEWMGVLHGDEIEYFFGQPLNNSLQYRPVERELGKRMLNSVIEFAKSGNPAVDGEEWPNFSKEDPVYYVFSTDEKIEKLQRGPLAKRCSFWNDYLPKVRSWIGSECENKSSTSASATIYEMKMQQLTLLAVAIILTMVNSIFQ

Lipaphis erysimi = experiment: Insecticidal activity against Lipaphis erysimi (mustard aphids) assessed as insect mortality at 300 mg/mL; assay type: functional; parameters: dose or concentration left out as unconfirmed; details: in Brassica

| SMILES | mortality (Tetranychus cinnabarinus) | IC50 (Acetylcholinesterase [1]) | IC50 (Acetylcholinesterase [2]) | mortality (Lipaphis erysimi) |
| --- | --- | --- | --- | --- |
| CCOP(=S)(OCC)Oc1nc(Cl)c(Cl)cc1Cl [CHLORPYRIFOS] | 71.1% | 1.83 µM | 9.51 µM | 100% |
| CCOP(O)(=S)OCC [O,O-DIETHYL S-HYDROGEN PHOSPHOROTHIOATE] | – | > 40000 µM | > 25000 µM | – |
| CCOP(=O)(OCC)SCCCCCCCCCN1C(=O)c2ccccc2C1=O | 77.6% | 37.5 µM | 267 µM | 88.3% |
| CCOP(=O)(OCC)SCCCN1C(=O)c2ccccc2C1=O | 92.9% | 8.29 µM | 155 µM | 97.8% |
| CCOP(=O)(OCC)SCCCCSP(=O)(OCC)OCC | 82% | 8.07 µM | 107 µM | 89.4% |
| CCOP(=O)(OCC)SCCCSP(=O)(OCC)OCC | 98.4% | 1.64 µM | 32.4 µM | 90.8% |
| CCOP(=O)(OCC)SCCCCCSP(=O)(OCC)OCC | 85.7% | 12.3 µM | 4600 µM | 42.6% |
| CCOP(=O)(OCC)SCCCCCCN1C(=O)c2ccccc2C1=O | 87.3% | 3.81 µM | 9.42 µM | 100% |
| CCOP(=O)(OCC)SCCCCN1C(=O)c2ccccc2C1=O | 88.9% | 9.92 µM | 25.8 µM | 97.7% |
| CCOP(=O)(OCC)SCCCCCCCCSP(=O)(OCC)OCC | 87.7% | 4.84 µM | 331 µM | 97.5% |
| CCOP(=O)(OCC)SCCCCCCCSP(=O)(OCC)OCC | 83.3% | 10.2 µM | 2100 µM | 97.3% |
| CCOP(=O)(OCC)SCCCCCCCN1C(=O)c2ccccc2C1=O | 89.3% | 1.84 µM | 2.08 µM | 88% |
| CCOP(=O)(OCC)SCCCCCCSP(=O)(OCC)OCC | 92.4% | 0.87 µM | 8.9 µM | 95.4% |
| CCOP(=O)(OCC)SCCCCCCCCCCSP(=O)(OCC)OCC | 93.3% | 1.76 µM | 224 µM | 96.6% |
| CCOP(=O)(OCC)SCCCCCCCCCCN1C(=O)c2ccccc2C1=O | 92.2% | 113 µM | 80.9 µM | 92.8% |
| CCOP(=O)(OCC)SCCCCCCCCN1C(=O)c2ccccc2C1=O | 85% | 4.5 µM | 13.8 µM | 62.5% |
| CCOP(=O)(OCC)SCCCCCN1C(=O)c2ccccc2C1=O | 81.2% | 12.3 µM | 114 µM | 96.5% |
| CCOP(=O)(OCC)SCCCCCCCCCSP(=O)(OCC)OCC | 78.6% | 1.43 µM | 197 µM | 100% |
